This note sets out measurements from PubChem BioAssay AID1745844 (Carcinogenic Potency Database (CPDB), 2022).

In the data set the test system is rodent lifetime carcinogenesis bioassay, tumor incidence TD50. Briefly: chronic cancer bioassays in animals – CPDB, compiled studies (AID 1745844). The note with it: for carcinogen call: strain Sprague-Dawley, inhaled, dosed 128 weeks, study length 128 weeks.

The structures appear in SMILES notation. The source made the active and inactive calls. The rule behind the calls is not given here.

Usually TD50 stands for the 50% point of the dose-response relation for the toxic effect studied.

Consider `CCN(CC)C(=S)S[Te](SC(=S)N(CC)CC)(SC(=S)N(CC)CC)SC(=S)N(CC)CC`, for which the TD50 reads like this: (mouse, strain B6AKF1, females, oral dosing, site: any site (literature study), lesion: several types, types named in the paper, dosed 76 weeks, study length 76 weeks) 26.7 mg/kg/day; (mouse, strain B6AKF1, females, oral dosing, site: lung, lesion: adenoma, dosed 76 weeks, study length 76 weeks) 28.2 mg/kg/day; (mouse, strain B6AKF1, males, oral dosing, site: any site (literature study), lesion: several types, types named in the paper, dosed 76 weeks, study length 76 weeks) 31.2 mg/kg/day; (mouse, strain B6AKF1, males, oral dosing, site: liver, lesion: hepatoma, dosed 76 weeks, study length 76 weeks) 55.5 mg/kg/day; (mouse, strain B6C3F1, females, in feed, site: any site (literature study), lesion: several types, types named in the paper, dosed 106 weeks, study length 106 weeks) 1030 mg/kg/day (inactive); (mouse, strain B6C3F1, females, in feed, site: liver, lesion: hepatocellular adenoma + hepatocellular carcinoma + neoplastic nodule, dosed 106 weeks, study length 106 weeks) 2270 mg/kg/day. For the same molecule, the TD50 is 3400 mg/kg/day (mouse, strain B6C3F1, females, in feed, site: lung, lesion: alveolar/bronchiolar adenoma + alveolar/bronchiolar carcinoma, dosed 106 weeks, study length 106 weeks); 63.5 mg/kg/day (mouse, strain B6C3F1, females, oral dosing, site: any site (literature study), lesion: several types, types named in the paper, dosed 76 weeks, study length 76 weeks); 131 mg/kg/day (mouse, strain B6C3F1, females, oral dosing, site: lung, lesion: adenoma, dosed 76 weeks, study length 76 weeks); 902 mg/kg/day (mouse, strain B6C3F1, males, in feed, site: any site (literature study), lesion: several types, types named in the paper, dosed 106 weeks, study length 106 weeks); 201 mg/kg/day (mouse, strain B6C3F1, males, in feed, site: eye, lesion: adenoma, NOS, dosed 106 weeks, study length 106 weeks); 228 mg/kg/day (mouse, strain B6C3F1, males, in feed, site: lung, lesion: alveolar/bronchiolar adenoma + alveolar/bronchiolar carcinoma, dosed 106 weeks, study length 106 weeks). For the same molecule, the TD50 runs as follows: (mouse, strain B6C3F1, males, in feed, site: lung, lesion: alveolar/bronchiolar carcinoma, dosed 106 weeks, study length 106 weeks) 260 mg/kg/day; (mouse, strain B6C3F1, males, oral dosing, site: any site (literature study), lesion: several types, types named in the paper, dosed 76 weeks, study length 76 weeks) 8.41 mg/kg/day; (mouse, strain B6C3F1, males, oral dosing, site: liver, lesion: hepatoma, dosed 76 weeks, study length 76 weeks) 24.2 mg/kg/day; (mouse, strain B6C3F1, males, oral dosing, site: lung, lesion: adenoma, dosed 76 weeks, study length 76 weeks) 108 mg/kg/day; (mouse, strain B6C3F1, males, oral dosing, site: lung, lesion: carcinoma, dosed 76 weeks, study length 76 weeks) 108 mg/kg/day; (mouse, strain B6C3F1, males, oral dosing, site: lung, lesion: several types, types named in the paper, dosed 76 weeks, study length 76 weeks) 52.1 mg/kg/day. Also, the TD50 reads like this: (rat, strain Fischer 344, females, in feed, site: liver, lesion: hepatocellular adenoma + hepatocellular carcinoma + neoplastic nodule, dosed 105 weeks, study length 105 weeks) 650 mg/kg/day; (rat, strain Fischer 344, females, in feed, site: pituitary gland, lesion: adenoma, NOS, dosed 105 weeks, study length 105 weeks) 12.3 mg/kg/day (inactive); (rat, strain Fischer 344, males, in feed, site: all sites, lesion: mesothelioma, NOS, dosed 105 weeks, study length 105 weeks) 77.6 mg/kg/day; (rat, strain Fischer 344, males, in feed, site: body cavities, lesion: mesothelioma, NOS, dosed 105 weeks, study length 105 weeks) 181 mg/kg/day.
Take `CCN(N=O)C(=O)NCCO`: the TD50 (hamster, strain Syrian Golden, females, by gavage, site: cervix uteri, lesion: one or several types, types not named, dosed 30 weeks, study length 75 weeks) was 1.04 mg/kg/day; the TD50 (hamster, strain Syrian Golden, females, by gavage, site: forestomach, lesion: benign tumor, dosed 30 weeks, study length 75 weeks) is 1.76 mg/kg/day; the TD50 (hamster, strain Syrian Golden, females, by gavage, site: liver, lesion: cholangioma, dosed 30 weeks, study length 75 weeks) is 27.5 mg/kg/day; the TD50 (hamster, strain Syrian Golden, females, by gavage, site: spleen, lesion: all vascular tumors, dosed 30 weeks, study length 75 weeks) was 3.05 mg/kg/day; the TD50 (rat, strain Fischer 344, females, in drinking water, site: mammary tissue, wider than the gland, lesion: carcinoma, dosed 30 weeks, study length 104 weeks) is 0.748 mg/kg/day; the TD50 (rat, strain Fischer 344, females, in drinking water, site: nervous system, lesion: one or several types, types not named, dosed 30 weeks, study length 104 weeks) is 0.714 mg/kg/day. For the same molecule, the TD50 by setting is: (rat, strain Fischer 344, females, in drinking water, site: skin, lesion: one or several types, types not named, dosed 30 weeks, study length 104 weeks) 0.956 mg/kg/day; (rat, strain Fischer 344, females, in drinking water, site: uterus, lesion: one or several types, types not named, dosed 30 weeks, study length 104 weeks) 0.972 mg/kg/day; (rat, strain Fischer 344, males, in drinking water, site: lung, lesion: one or several types, types not named, dosed 30 weeks, study length 104 weeks) 0.39 mg/kg/day; (rat, strain Fischer 344, males, in drinking water, site: nervous system, lesion: one or several types, types not named, dosed 30 weeks, study length 104 weeks) 0.769 mg/kg/day; (rat, strain Fischer 344, males, in drinking water, site: skin, lesion: one or several types, types not named, dosed 30 weeks, study length 104 weeks) 0.401 mg/kg/day; (rat, strain Fischer 344, males, in drinking water, site: tunica vaginalis, lesion: mesothelioma, dosed 30 weeks, study length 104 weeks) 0.226 mg/kg/day.
For the molecule `Cl`, the TD50 (rat, strain Fischer 344, males, in feed, site: adrenal medulla, lesion: pheochromocytoma, dosed 104 weeks, study length 104 weeks) is 6210 mg/kg/day (inactive); the TD50 (rat, strain Fischer 344, males, in feed, site: mammary gland, lesion: fibroadenoma, dosed 104 weeks, study length 104 weeks) is 33500 mg/kg/day (inactive); the TD50 (rat, strain Wistar-random, females, in feed, site: urinary bladder, lesion: transitional-cell papilloma, dosed 130 weeks, study length 130 weeks) worked out at 79500 mg/kg/day. Besides, the carcinogen call reads like this: (rat, males, site: liver, lesion: hepatocellular carcinoma) “negative (inactive)”; (rat, males, site: nasal mucosa, lesion: one or several types, types not named) “negative (inactive)”.
In the case of `Cc1ccccc1N=O`, the TD50 by setting is: (rat, strain Fischer 344, males, in feed, site: liver, lesion: hepatoma, dosed 72 weeks, study length 93 weeks) 59.2 mg/kg/day; (rat, strain Fischer 344, males, in feed, site: liver, lesion: several types, types named in the paper, dosed 72 weeks, study length 93 weeks) 50.7 mg/kg/day; (rat, strain Fischer 344, males, in feed, site: peritoneal cavity, lesion: mesothelioma, dosed 72 weeks, study length 93 weeks) 195 mg/kg/day; (rat, strain Fischer 344, males, in feed, site: peritoneal cavity, lesion: spindle-cell sarcoma, dosed 72 weeks, study length 93 weeks) 303 mg/kg/day; (rat, strain Fischer 344, males, in feed, site: skin, lesion: fibroma, dosed 72 weeks, study length 93 weeks) 55.8 mg/kg/day; (rat, strain Fischer 344, males, in feed, site: spleen, lesion: fibroma, dosed 72 weeks, study length 93 weeks) 87 mg/kg/day. Besides, the TD50 is 78.8 mg/kg/day (rat, strain Fischer 344, males, in feed, site: urinary bladder, lesion: papilloma, dosed 72 weeks, study length 93 weeks) and 71.5 mg/kg/day (rat, strain Fischer 344, males, in feed, site: urinary bladder, lesion: several types, types named in the paper, dosed 72 weeks, study length 93 weeks).
